Values joined by “and” are separate entries in the source; they are usually repeats but may differ in a detail not shown here. Equal entries are not always repeated. Results filed as inconclusive are left out.
Tested on: CD2F1 mice, Lymphoma 8 ip, survival T/C
Experiment: NCI In Vivo Anticancer Drug Screen. Data for tumor model Lymphoma 8 (intraperitoneal) in CD2F1 (CDF1) mice
Settings: higher = longer survival
Experimental: The antitumor activity of compounds was measured in mice bearing transplantable tumors. Survival or tumor size were measured and the results are expressed as the measurement made in the treated group (T) divided by the measurement made in the vehicle treated control group (C). The tumor model used in this assay is Lymphoma 8 (intraperitoneal) in CD2F1 (CDF1) mice

[1] = endpoint: median survival time, dose: 50.0 mg/kg/injection, schedule: Q01DX009 (ip), vehicle: saline
[2] = endpoint: median survival time, dose: 100.0 mg/kg/injection, schedule: Q01DX009 (ip), vehicle: saline
[3] = endpoint: median survival time, dose: 200.0 mg/kg/injection, schedule: Q01DX009 (ip), vehicle: saline
[4] = endpoint: median survival time, dose: 400.0 mg/kg/injection, schedule: Q01DX009 (ip), vehicle: saline
[5] = endpoint: survival time, mean or median, dose: 6.25 mg/kg/injection, schedule: Q01DX010 (ip), vehicle: saline
[6] = endpoint: survival time, mean or median, dose: 12.5 mg/kg/injection, schedule: Q01DX010 (ip), vehicle: saline
[7] = endpoint: survival time, mean or median, dose: 25.0 mg/kg/injection, schedule: Q01DX010 (ip), vehicle: saline
[8] = endpoint: median survival time, dose: 100.0 mg/kg/injection, schedule: Q01DX005 (ip), vehicle: water
[9] = endpoint: median survival time, dose: 200.0 mg/kg/injection, schedule: Q01DX005 (ip), vehicle: water
[10] = endpoint: median survival time, dose: 400.0 mg/kg/injection, schedule: Q01DX005 (ip), vehicle: water
[11] = endpoint: median survival time, dose: 800.0 mg/kg/injection, schedule: Q01DX005 (ip), vehicle: water
[12] = endpoint: median survival time, dose: 50.0 mg/kg/injection, schedule: Q01DX005 (ip), vehicle: saline

In the case of NC(=O)C(N)CCO (stereo not drawn), the T/C [1] was 100 % of control and 102 % of control and 94 % of control, the T/C [2] was 97 % of control [middle of 4 runs] and the T/C (endpoint: median survival time, dose: 100.0 mg/kg/injection, schedule: Q01DX010 (ip), vehicle: saline) was 87 % of control and 88 % of control. The T/C [3] was 98 % of control [middle of 4 runs], the T/C (endpoint: median survival time, dose: 200.0 mg/kg/injection, schedule: Q01DX010 (ip), vehicle: saline) was 91 % of control [middle of 4 runs] and the T/C [4] was 100 % of control [middle of 4 runs]. For the same compound, the T/C (endpoint: median survival time, dose: 400.0 mg/kg/injection, schedule: Q01DX010 (ip), vehicle: saline) was 95 % of control [middle of 4 runs].
With C[C@H]1C(=O)O[C@@H]2CCN3CC=C(COC(=O)[C@](C)(O)[C@@]1(C)O)[C@H]23 the T/C (endpoint: survival time, mean or median, dose: 3.13 mg/kg/injection, schedule: Q01DX010 (ip), vehicle: saline) was 100 % of control, the T/C [5] was 100 % of control and the T/C [6] was 100 % of control. For the same compound, the T/C [7] was 100 % of control.
CCSCCC(N)C(=O)O (stereo not drawn) was tested, and the T/C (endpoint: median survival time, dose: 37.5 mg/kg/injection, schedule: Q01DX005 (ip), vehicle: saline) was 107 % of control and 109 % of control, the T/C (endpoint: median survival time, dose: 75.0 mg/kg/injection, schedule: Q01DX005 (ip), vehicle: saline) was 100 % of control and 103 % of control and the T/C (endpoint: median survival time, dose: 150.0 mg/kg/injection, schedule: Q01DX005 (ip), vehicle: saline) was 81 % of control.
In the case of Nc1ncn(C2OC(CO)C(O)C2O)c(=O)n1 (stereo not drawn), the T/C (endpoint: median survival time, dose: 0.75 mg/kg/injection, schedule: Q01DX005 (ip), vehicle: saline) was 116 % of control and the T/C (endpoint: median survival time, dose: 3.0 mg/kg/injection, schedule: Q01DX005 (ip), vehicle: saline) was 158 % of control.
With NC(=O)CC(N)CO (stereo not drawn) the T/C [1] was 87 % of control and 100 % of control, the T/C [2] was 91 % of control and 100 % of control and the T/C [3] was 97 % of control and 98 % of control. For the same compound, the T/C [4] was 91 % of control and 102 % of control.
In the case of O=C1C=CC(=O)N1, the T/C (endpoint: median survival time, dose: 0.25 mg/kg/injection, schedule: Q01DX009 (ip), vehicle: saline) was 98 % of control and 109 % of control, the T/C (endpoint: median survival time, dose: 0.5 mg/kg/injection, schedule: Q01DX009 (ip), vehicle: saline) was 100 % of control and 102 % of control and the T/C (endpoint: median survival time, dose: 1.0 mg/kg/injection, schedule: Q01DX009 (ip), vehicle: saline) was 95 % of control and 102 % of control. The T/C (endpoint: median survival time, dose: 2.0 mg/kg/injection, schedule: Q01DX009 (ip), vehicle: saline) was 94 % of control and 95 % of control.
For NC(=O)CC(N)C(=O)O (stereo not drawn), the T/C [8] was 91 % of control, the T/C [9] was 100 % of control and the T/C [10] was 100 % of control. The T/C [11] was 91 % of control.
In the case of NC(=O)C(F)(F)C(N)C(=O)O (stereo not drawn), the T/C [1] was 88 % of control and the T/C [2] was 88 % of control.
With S=c1nc[nH]c2nc[nH]c12 the T/C (endpoint: median survival time, dose: 60.0 mg/kg/injection, schedule: Q01DX002 (ip), vehicle: saline) was 96 % of control, the T/C (endpoint: median survival time, dose: 60.0 mg/kg/injection, schedule: Q04DX002 (ip), vehicle: saline) was 107 % of control and the T/C (endpoint: median survival time, dose: 90.0 mg/kg/injection, schedule: Q01DX002 (ip), vehicle: saline) was 93 % of control. For the same compound, the T/C (endpoint: median survival time, dose: 90.0 mg/kg/injection, schedule: Q04DX002 (ip), vehicle: saline) was 107 % of control and the T/C (endpoint: median survival time, dose: 135.0 mg/kg/injection, schedule: Q01DX002 (ip), vehicle: saline) was 103 % of control.
With COc1cccc2c1C(=O)c1c(O)c3c(c(O)c1C2=O)C[C@@](O)(C(C)=O)C[C@@H]3OC1CC(N)C(O)C(C)O1 (stereo partly drawn) the T/C (endpoint: median survival time, dose: 1.25 mg/kg/injection, schedule: Q01DX005 (ip), vehicle: saline) was 96 % of control and 101 % of control, the T/C (endpoint: median survival time, dose: 2.5 mg/kg/injection, schedule: Q01DX005 (ip), vehicle: saline) was 100 % of control and 105 % of control and the T/C (endpoint: median survival time, dose: 5.0 mg/kg/injection, schedule: Q01DX005 (ip), vehicle: saline) was 123 % of control. For the same compound, the T/C (endpoint: median survival time, dose: 10.0 mg/kg/injection, schedule: Q01DX005 (ip), vehicle: saline) was 82 % of control.
For c1ccc(CNc2ncnc3[nH]ncc23)cc1, the T/C (endpoint: survival time, mean or median, dose: 8.0 mg/kg/injection, schedule: Q01DX010 (ip), vehicle: saline) was 100 % of control, the T/C (endpoint: survival time, mean or median, dose: 16.0 mg/kg/injection, schedule: Q01DX010 (ip), vehicle: saline) was 95 % of control and the T/C (endpoint: survival time, mean or median, dose: 32.0 mg/kg/injection, schedule: Q01DX010 (ip), vehicle: saline) was 95 % of control and 100 % of control. The T/C (endpoint: survival time, mean or median, dose: 64.0 mg/kg/injection, schedule: Q01DX010 (ip), vehicle: saline) was 90 % of control.
CC/C(=C(/CC)c1ccc(O)cc1)c1ccc(O)cc1 was tested, and the T/C (endpoint: survival time, mean or median, dose: 12.5 mg/kg/injection, schedule: Q01DX010 (sc), vehicle: steriod suspending solution) was 90 % of control, the T/C (endpoint: survival time, mean or median, dose: 25.0 mg/kg/injection, schedule: Q01DX010 (sc), vehicle: steriod suspending solution) was 90 % of control and the T/C (endpoint: survival time, mean or median, dose: 50.0 mg/kg/injection, schedule: Q01DX010 (sc), vehicle: steriod suspending solution) was 90 % of control and 95 % of control. For the same compound, the T/C (endpoint: survival time, mean or median, dose: 100.0 mg/kg/injection, schedule: Q01DX010 (sc), vehicle: steriod suspending solution) was 90 % of control.
For O=c1[nH]c(=O)n(C2CC(O)C(CO)O2)cc1F (stereo not drawn), the T/C (endpoint: survival time, mean or median, dose: 5.0 mg/kg/injection, schedule: Q01DX010 (ip), vehicle: saline) was 104 % of control, the T/C (endpoint: survival time, mean or median, dose: 10.0 mg/kg/injection, schedule: Q01DX010 (ip), vehicle: saline) was 109 % of control and the T/C (endpoint: survival time, mean or median, dose: 20.0 mg/kg/injection, schedule: Q01DX010 (ip), vehicle: saline) was 113 % of control.
With O=c1[nH]cc(F)c(=O)[nH]1 the T/C (endpoint: median survival time, dose: 13.0 mg/kg/injection, schedule: Q04DX003 (ip), vehicle: saline) was 110 % of control, the T/C (endpoint: median survival time, dose: 21.8 mg/kg/injection, schedule: Q04DX003 (ip), vehicle: saline) was 118 % of control and the T/C (endpoint: median survival time, dose: 36.0 mg/kg/injection, schedule: Q04DX003 (ip), vehicle: saline) was 114 % of control. The T/C (endpoint: median survival time, dose: 100.0 mg/kg/injection, schedule: Q04DX003 (ip), vehicle: saline) was 62 % of control.
With NC(=O)OCC(N)C(=O)O (stereo not drawn) the T/C [12] was 99 % of control and 100 % of control, the T/C (endpoint: median survival time, dose: 100.0 mg/kg/injection, schedule: Q01DX005 (ip), vehicle: saline) was 100 % of control and the T/C (endpoint: median survival time, dose: 200.0 mg/kg/injection, schedule: Q01DX005 (ip), vehicle: saline) was 88 % of control. The T/C (endpoint: median survival time, dose: 400.0 mg/kg/injection, schedule: Q01DX005 (ip), vehicle: saline) was 92 % of control and 94 % of control.
In the case of O=NN(CCCl)C(=O)NCCCl, the T/C (endpoint: median survival time, dose: 12.5 mg/kg/injection, schedule: Q01DX001 (ip), vehicle: saline) was 153 % of control, the T/C (endpoint: median survival time, dose: 12.5 mg/kg/injection, schedule: Q01DX005 (ip), vehicle: saline) was 157 % of control and the T/C (endpoint: median survival time, dose: 25.0 mg/kg/injection, schedule: Q01DX001 (ip), vehicle: saline) was 261 % of control. The T/C (endpoint: median survival time, dose: 25.0 mg/kg/injection, schedule: Q01DX005 (ip), vehicle: saline) was 265 % of control, the T/C [12] was 69 % of control and the T/C [5] was 160 % of control and 165 % of control. For the same compound, the T/C [6] was 120 % of control and the T/C [7] was 90 % of control.
For NC(CC(=O)O)C(=O)O (stereo not drawn), the T/C [8] was 95 % of control and 100 % of control, the T/C [9] was 100 % of control and the T/C [10] was 100 % of control. The T/C [11] was 91 % of control.
For COc1cc2c(c3c1c(=O)c1ccccc1n3C)C=CC(C)(C)O2, the T/C (endpoint: median survival time, dose: 12.5 mg/kg/injection, schedule: Q01DX009 (ip), vehicle: Klucel (hydroxypropylcellulose) (HPC)) was 100 % of control, the T/C (endpoint: median survival time, dose: 25.0 mg/kg/injection, schedule: Q01DX009 (ip), vehicle: Klucel (hydroxypropylcellulose) (HPC)) was 100 % of control and the T/C (endpoint: median survival time, dose: 50.0 mg/kg/injection, schedule: Q01DX009 (ip), vehicle: Klucel (hydroxypropylcellulose) (HPC)) was 107 % of control. The T/C (endpoint: median survival time, dose: 100.0 mg/kg/injection, schedule: Q01DX009 (ip), vehicle: Klucel (hydroxypropylcellulose) (HPC)) was 96 % of control.
With NCC(=O)O the T/C (endpoint: median survival time, dose: 187.5 mg/kg/injection, schedule: Q04HX003 (ip), vehicle: saline) was 86 % of control, the T/C (endpoint: median survival time, dose: 375.0 mg/kg/injection, schedule: Q04HX003 (ip), vehicle: saline) was 86 % of control and the T/C (endpoint: median survival time, dose: 750.0 mg/kg/injection, schedule: Q04HX003 (ip), vehicle: saline) was 81 % of control. For the same compound, the T/C (endpoint: median survival time, dose: 1500.0 mg/kg/injection, schedule: Q04HX003 (ip), vehicle: saline) was 75 % of control.

Reference: PubChem BioAssay AID244 (DTP/NCI, 2004)
